Experimental data taken from patent US7256006B2, “Method for determining the influence of a test substance on the heart activity of a vertebrate” (Multi Channel Systems MCS GmbH, priority 2003, dated 2007).
Structures can show the parent of a compound that is named as a salt. Where two headings read alike, the source gives them in different places. Blank lines part the entries; values can stand above or below the compound they belong to.

Key:
[1] = tested on: ventricular myocytes from chicken embryos; assay: extracellular MEA field potential (FPdur) measurement on spontaneously beating heart cells; assay type: cell-based; conditions: submicromolecular concentrations
[2] = tested on: ventricular myocytes from chicken embryos; assay: as above; assay type: cell-based
Procedure: The heart muscle cells were obtained by trypsin digestion of the isolated ventricle of chicken embryos (10-12 days after fertilization). The heart was freed of blood vessels and atria. The cells were cultured in MEM medium supplemented with 10% fetal calf serum (FCS). One to two days before the measurement, the medium was replaced by standard Tyrode solution.
The standard Tyrode solution was then replaced by a Tyrode solution with 5 μM of a test substance and the change in FPdur was determined. Thereafter, the concentration of the test substance was increased in logarithmic steps. A measurement was now taken every 10 minutes.
In measurements with quinidine, 0.5% DMSO was added to the cell Tyrode since quinidine is not water-soluble. The control experiment was also carried out with DMSO here.
In these qualitative evaluations, i.e. comparison of data from the respective control experiment and the data derived from addition of the QT-modifying substance, possible changes in the heart rate were taken into account.
For the normalized case, the FPdur value was divided by the square root of the time span (in seconds) between two action potentials.

[3] = literature reference; cited from earlier work

Compound: Cc1cccc(CCN2CCC(C(=O)c3ccc(NS(C)(=O)=O)cc3)CC2)n1.Cl.Cl [E4031]
prolongation of the ventricular action potential [1]: over 90%

Compound: COc1ccc(CCN2CCC(Nc3nc4ccccc4n3Cc3ccc(F)cc3)CC2)cc1 [astemizol]
effect on the QT interval [2]: prolongating effect

Compound: COc1cc(N)c(Cl)cc1C(=O)NC1CCN(CCCOc2ccc(F)cc2)CC1OC (centres unmarked) [cisapride]
effect on the QT interval [2]: prolongating effect

Compound: CC(C)(C(=O)O)c1ccc(C(O)CCCN2CCC(C(O)(c3ccccc3)c3ccccc3)CC2)cc1 (centres unmarked) [fexofenafine]
effect on the QT interval [2]: prolongating effect

Compound: COc1cc2c(cc1OC)CC(=O)N(CCCN(C)C[C@H]1Cc3cc(OC)c(OC)cc31)CC2 [ivabradine]
effect on the QT interval [2]: No QT prolongation

Compound: C=C[C@H]1C[N@@]2CC[C@H]1C[C@@H]2[C@@H](O)c1ccnc2ccc(OC)cc12 [quinidine]
QT prolongation (increase in FPdur) ([2]; FIG. 2B, indicated quinidine concentrations for 200 seconds): QT prolongation increasing with concentration | concentrations at which QT prolongations are shown in vitro in the MEA system ([2]; chicken, 10 min): 2000 to 7000 nM | effect on the QT interval ([2]; summary of substances tested by the inventors): prolongating effect | effect on QT [3]: QT-prolonging effect

prolongation of the field potential [2]: did not prolong the field potential
Compound: CC1(C)Oc2ccc(S(=O)(=O)c3ccccc3)cc2[C@@H](N2CCCC2=O)[C@@H]1O [rilmakalim]
beating frequency ([2]; substance with so far unknown effect on QT interval): reduced the frequency

prolongation of the action potential [2]: about double
Compound: CC(C)NCC(O)c1ccc(NS(C)(=O)=O)cc1 (centres unmarked) [sotalol, N-[4-[1-hydroxy-2-(isopropylamino)ethyl]phenyl]methanesulfonamidehydrochloride]
effect on the QT interval [2]: prolongating effect

Compound: CC(C)(C)c1ccc(C(O)CCCN2CCC(C(O)(c3ccccc3)c3ccccc3)CC2)cc1 (centres unmarked) [terfenadin]
effect on the QT interval [2]: prolongating effect
